Source: US9062004B2, “Cannabinoid-2 agonists” (Allergan, Inc., priority 2010, dated 2015)
pEC50, pIC50: −log10 of the molar value. Read-outs that look alike come from different tables or passages of the source.

Assays:
[1] = tested on: mouse isolated vas deferens; experiment: Mouse isolated vas deferens (MVD) bioassay, electrically stimulated contractions; type: cell-based; conditions: Mus musculus; for pEC50: vas deferens of male Swiss Webster mice, electrically evoked contractions, NA = not active, read-out: MVD Assay EC50; for EC50: read-out: MVD Assay EC50 (nM)
[2] = target: human CB1 cannabinoid receptor (Homo sapiens (Human), UniProt P21554); experiment: Radioligand binding assay, CB1 ([3H]-CP 55,940 competition); conditions: plasma membranes of HEK 293 EBNA cells transfected with human CB1; 0.72 nM [3H]-CP 55,940; NA = not active
Procedure: (§1) A. Radioligand Binding Assay
(§2) Plasma membranes prepared from HEK 293 EBNA cells transfected with human CB1 or CB2 cannabinoid receptors ([…] protein, receptor concentration; PerkinElmer) were used for the radioligand binding studies. The composition of incubation buffer for CB1 assay was 50 mM Tris base, 2.5 mM EDTA, 5 mM MgCl2 and 0.5 mg/ml fatty acid free BSA and for CB2 assay was 50 mM Tris base, 2.5 mM EGTA, 5 mM MgCl2 and 1 mg/ml fatty acid free BSA; pH was adjusted to 7.4 by adding 1N HCl. Plasma membranes were diluted with incubation buffer to provide a final protein concentration of 2.4 μg (CB1) or 8 μg (CB2) per well in non-binding surface polystyrene 96-well assay plates (Corning). Compound solutions were prepared in silanized glass tubes and dispensed using pipette tips with SUPERSLIK™ surface. Competition studies were performed using a final concentration of 0.72 nM [^3H]-CP 55,940 (100-180 Ci/mmol, specific activity; PerkinElmer) against test compounds. Non-specific binding was determined using 10 uM of unlabeled CP 55,940. Incubations were performed in 96-well assay plates at a final volume of 200 ul for 90 min (CB1) or 60 min (CB2) at room temperature. Binding reactions were terminated by the addition of ice-cold incubation buffer and rapid filtration through a glass fiber filter using a cell harvester (Inotech). This was followed by 8 additional washes. The glass fiber filter (0.26 mm thickness, 1-1.5 um retention; Inotech) was presoaked in cold incubation buffer containing 0.05% polyethylenimine. The filters were oven-dried at 50° C. for 60 min and counting performed using a Beckman Coulter LS 6500 Multi-Purpose Scintillation Counter (Beckman-Coulter). Binding was determined in duplicate for at least 4 separate experiments.

[3] = target: human CB2 cannabinoid receptor (Homo sapiens (Human), UniProt P34972); experiment: Radioligand binding assay, CB2 ([3H]-CP 55,940 competition); conditions: for CB2 Selectivity: CB2 versus CB1 binding (ratio of CB1 IC50 to CB2 IC50); for pIC50: plasma membranes of HEK 293 EBNA cells transfected with human CB2, 0.72 nM [3H]-CP 55,940, NA = not active
Procedure: as §1, §2

Sequence of human CB1 cannabinoid receptor (P21554 whole entry): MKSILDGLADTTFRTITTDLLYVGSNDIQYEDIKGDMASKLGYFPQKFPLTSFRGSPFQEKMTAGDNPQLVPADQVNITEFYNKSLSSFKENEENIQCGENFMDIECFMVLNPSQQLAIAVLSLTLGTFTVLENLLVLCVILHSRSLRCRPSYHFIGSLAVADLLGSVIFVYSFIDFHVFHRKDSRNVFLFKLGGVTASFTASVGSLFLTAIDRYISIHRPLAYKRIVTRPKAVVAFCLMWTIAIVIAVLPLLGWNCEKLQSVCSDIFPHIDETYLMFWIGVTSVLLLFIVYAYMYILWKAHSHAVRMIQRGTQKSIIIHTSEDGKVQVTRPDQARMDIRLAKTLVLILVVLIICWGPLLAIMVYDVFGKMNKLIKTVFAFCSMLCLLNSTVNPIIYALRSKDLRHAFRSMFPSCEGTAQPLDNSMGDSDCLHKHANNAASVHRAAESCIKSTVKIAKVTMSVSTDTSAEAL
Sequence of human CB2 cannabinoid receptor (P34972 whole entry): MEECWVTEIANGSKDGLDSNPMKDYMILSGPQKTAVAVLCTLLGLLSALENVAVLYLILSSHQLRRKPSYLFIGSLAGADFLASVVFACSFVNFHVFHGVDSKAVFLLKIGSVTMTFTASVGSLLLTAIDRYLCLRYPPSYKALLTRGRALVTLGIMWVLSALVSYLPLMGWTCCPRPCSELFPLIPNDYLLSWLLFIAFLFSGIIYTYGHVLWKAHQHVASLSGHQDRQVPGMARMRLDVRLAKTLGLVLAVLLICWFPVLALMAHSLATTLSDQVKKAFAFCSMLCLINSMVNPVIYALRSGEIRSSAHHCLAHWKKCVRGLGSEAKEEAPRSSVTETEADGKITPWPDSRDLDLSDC

pEC50 [1]	Structure (SMILES)	pIC50 [2]	CB2 Selectivity [3]	pIC50 [3]	EC50 [1]
6.48	CN(C)CCN(C)c1cnn(C2CC(C)(C)CC(C)(C)C2)c(=O)c1Cl [Compound 31, 4-Chloro-5-(2-dimethylaminoethylmethylamino)-2-(3,3,5,5-tetramethyl-cyclohexyl)pyridazin-3-one]	5.58	132	7.70	–
–	CCCn1ncc2c(=O)n(C3CC(C)(C)CC(C)(C)C3)ncc21 [Compound 34, 1-Propyl-5-(3,3,5,5-tetramethyl-cyclohexyl)pyrazolo[3,4-d]pyridazin-4-one]	6.59	15	7.77	21 nM
–	CCCn1cc2c(=O)n(C3CC(C)(C)CC(C)(C)C3)ncc2n1 [Compound 35, 2-Propyl-5-(3,3,5,5-tetramethylcyclohexyl)pyrazolo[3,4-d]pyridazin-4-one]	< 5.00	>42	6.62	1200 nM
7.48	CC1(C)CC(n2ncc3c(cnn3CCN3CCOCC3)c2=O)CC(C)(C)C1 [Compound 36, 1-(2-Morpholin-4-ylethyl)-5-(3,3,5,5-tetramethylcyclohexyl)pyrazolo[3,4-d]pyridazin-4-one]	6.66	26	8.07	–
–	CC1(C)CC(n2ncc3nn(CCN4CCOCC4)cc3c2=O)CC(C)(C)C1 [Compound 37, 2-(2-Morpholin-4-ylethyl)-5-(3,3,5,5-tetramethylcyclohexyl)pyrazolo[3,4-d]pyridazin-4-one]	< 5.00	>7	5.82	1400 nM
6.89	CN(C)CCn1ncc2c(=O)n(C3CC(C)(C)CC(C)(C)C3)ncc21 [Compound 38, 1-(2-Dimethylaminoethyl)-5-(3,3,5,5-tetramethylcyclohexyl)pyrazolo[3,4-d]pyridazin-4-one]	5.40	38	6.98	–
